Several values for one entry are separate records, joined by “and”; a condition that tells them apart may be missing. Equal entries are not always repeated. Structures can show the parent of a compound that is named as a salt. Where two headings read alike, the source gives them in different places.
What was measured:
[1] = tested on: p53 signaling (p53RE-bla HCT-116 cells); conditions: for EC50: read-out: p53 activation EC50, HLM
[2] = tested on: p53 signaling (p53RE-bla HCT-116 cells)
[3] = tested on: p53 signaling (p53RE-bla HCT-116 cells); assay: cells; assay type: cell-based
[4] = Homo sapiens, HCT-116, read-out: Efficacy, p53 activation, primary screening
[5] = Homo sapiens, HCT-116, read-out: p53 activation EC50, primary screening
[6] = Homo sapiens, HCT-116, read-out: p53 activation efficacy, primary screening
[7] = Homo sapiens, HCT-116, read-out: p53 activation EC50, cherry pick confirmation
[8] = Homo sapiens, HCT-116, read-out: p53 activation efficacy, cherry pick confirmation
[9] = read-out: EC50, p53 activation, primary screening
[10] = Homo sapiens, HCT-116, read-out: Efficacy, p53 activation, cherry pick confirmation

Thimerosal
EC50 (p53RE-bla HCT-116 cells; read-out: Viability EC50, HLM): 10.6 µM and 8.9 µM
EC50 (p53RE-bla HCT-116 cells; read-out: Viability EC50, No MS): 8.56 µM and 9.16 µM
EC50 (p53RE-bla HCT-116 cells; read-out: Viability EC50, RLM): 8.9 µM
p53 activation EC50, HLM [1]: inactive
EC50 [1]: 5.03 µM
p53 activation EC50, RLM [2]: inactive
p53 activation Efficacy, RLM [2]: inactive
p53 activation Efficacy, No MS [3]: 73.3573% and 52.656%

Oc1ccc(-c2ccc(O)cc2)cc1 [4,4'-Biphenyldiol]
EC50, viability, cherry pick confirmation (p53RE-bla HCT-116 cells): inactive
EC50, viability, primary screening (p53RE-bla HCT-116 cells): inactive
Efficacy, viability, cherry pick confirmation (p53RE-bla HCT-116 cells): inactive
Efficacy, viability, primary screening (p53RE-bla HCT-116 cells): inactive
EC50, p53 activation, cherry pick confirmation [1]: inactive
EC50, p53 activation, primary screening [1]: inactive
Efficacy, p53 activation, cherry pick confirmation [1]: inactive
Efficacy, p53 activation, primary screening [1]: inactive
EC50, p53 activation, cherry pick confirmation [2]: inactive
EC50, p53 activation, primary screening [2]: inactive
Efficacy, p53 activation, cherry pick confirmation [2]: inactive
Efficacy, p53 activation, primary screening [2]: inactive
EC50, p53 activation, cherry pick confirmation [3]: inactive
Efficacy, p53 activation, cherry pick confirmation [3]: inactive
EC50 ([3]; Homo sapiens, HCT-116, read-out: EC50, p53 activation, primary screening): 35.4 µM
Emax [3, 4]: 48.2%

CNC(=O)Oc1cccc2c1OC(C)(C)C2 [Carbofuran]
Viability EC50 (p53RE-bla HCT-116 cells): inactive
Viability efficacy (p53RE-bla HCT-116 cells): inactive
p53 activation EC50 [1]: inactive
p53 activation EC50 [2]: inactive
p53 activation EC50 [3]: inactive
p53 activation efficacy [3]: inactive

Cl.Nc1ccc2cc3ccc(N)cc3nc2c1 [Proflavin hydrochloride]
Viability EC50, cherry pick confirmation (p53RE-bla HCT-116 cells): inactive
Viability EC50, primary screening (p53RE-bla HCT-116 cells): inactive
Viability efficacy, cherry pick confirmation (p53RE-bla HCT-116 cells): inactive
Viability efficacy, primary screening (p53RE-bla HCT-116 cells): inactive
p53 activation EC50, cherry pick confirmation [1]: inactive
p53 activation EC50, primary screening [1]: inactive
p53 activation efficacy, cherry pick confirmation [1]: inactive
p53 activation efficacy, primary screening [1]: inactive
p53 activation EC50, cherry pick confirmation [2]: inactive
p53 activation EC50, primary screening [2]: inactive
p53 activation efficacy, cherry pick confirmation [2]: inactive
p53 activation efficacy, primary screening [2]: inactive
p53 activation efficacy, cherry pick confirmation [3]: 356.887
p53 activation efficacy, primary screening [3]: 211.641
EC50 ([3]; read-out: p53 activation EC50, cherry pick confirmation): 3.65 µM
EC50 ([3]; read-out: p53 activation EC50, primary screening): 2.9 µM

CCC(C)c1cc([N+](=O)[O-])cc([N+](=O)[O-])c1OC(=O)OC(C)C (stereo not drawn) [Dinobuton]
Viability EC50, cherry pick confirmation (p53RE-bla HCT-116 cells): inactive
Viability EC50, primary screening (p53RE-bla HCT-116 cells): inactive
Viability efficacy, cherry pick confirmation (p53RE-bla HCT-116 cells): inactive
Viability efficacy, primary screening (p53RE-bla HCT-116 cells): inactive
p53 activation EC50, cherry pick confirmation [1]: inactive
p53 activation EC50, primary screening [1]: inactive
p53 activation efficacy, cherry pick confirmation [1]: inactive
p53 activation efficacy, primary screening [1]: inactive
p53 activation EC50, cherry pick confirmation [2]: inactive
p53 activation EC50, primary screening [2]: inactive
p53 activation efficacy, cherry pick confirmation [2]: inactive
p53 activation efficacy, primary screening [2]: inactive
p53 activation EC50, cherry pick confirmation [3]: inactive
p53 activation efficacy, cherry pick confirmation [3]: inactive
EC50 [3, 5]: 49.5 µM
Emax [3, 6]: 74.7%

CCC(C)(NC(=O)c1cc(Cl)c(C)c(Cl)c1)C(=O)CCl (stereo not drawn) [Zoxamide]
Viability EC50, cherry pick confirmation (p53RE-bla HCT-116 cells): inactive
Viability EC50, primary screening (p53RE-bla HCT-116 cells): inactive
Viability efficacy, cherry pick confirmation (p53RE-bla HCT-116 cells): inactive
Viability efficacy, primary screening (p53RE-bla HCT-116 cells): inactive
p53 activation EC50, cherry pick confirmation [1]: inactive
p53 activation EC50, primary screening [1]: inactive
p53 activation efficacy, cherry pick confirmation [1]: inactive
p53 activation efficacy, primary screening [1]: inactive
p53 activation EC50, cherry pick confirmation [2]: inactive
p53 activation EC50, primary screening [2]: inactive
p53 activation efficacy, cherry pick confirmation [2]: inactive
p53 activation efficacy, primary screening [2]: inactive
EC50 [3, 7]: 22.3 µM
EC50 [3, 5]: 38 µM
Emax [3, 8]: 94.8%
Emax [3, 6]: 50.7%

O=c1cc(-c2ccc(O)cc2)oc2cc(O)cc(O)c12 [Apigenin]
Viability EC50, cherry pick confirmation (p53RE-bla HCT-116 cells): inactive
Viability EC50, primary screening (p53RE-bla HCT-116 cells): inactive
Viability efficacy, cherry pick confirmation (p53RE-bla HCT-116 cells): inactive
Viability efficacy, primary screening (p53RE-bla HCT-116 cells): inactive
p53 activation EC50, cherry pick confirmation [1]: inactive
p53 activation EC50, primary screening [1]: inactive
p53 activation efficacy, cherry pick confirmation [1]: inactive
p53 activation efficacy, primary screening [1]: inactive
p53 activation EC50, cherry pick confirmation [2]: inactive
p53 activation EC50, primary screening [2]: inactive
p53 activation efficacy, cherry pick confirmation [2]: inactive
p53 activation efficacy, primary screening [2]: inactive
EC50 [3, 7]: 46.5 µM
EC50 [3, 5]: 18.2 µM
Emax [3, 8]: 32.2%
Emax [3, 6]: 51.2%

CC(C)c1ccc2cc(C(C)C)ccc2c1 [2,6-Diisopropylnaphthalene]
Efficacy, p53 activation, cherry pick confirmation [2]: inactive
Efficacy, p53 activation, primary screening [2]: inactive
Efficacy, p53 activation, cherry pick confirmation [3]: inactive

Irinotecan hydrochloride
Efficacy, p53 activation, cherry pick confirmation [3]: 86.836
Efficacy, p53 activation, primary screening [3]: 70.7017
EC50 [3, 9]: 4.18 µM

O=C(c1ccc(O)c(O)c1)c1ccc(O)cc1O [2,3',4,4'-Tetrahydroxybenzophenone]
p53 activation efficacy, cherry pick confirmation [3]: inactive

Phenylmercuric acetate
p53 activation EC50, HLM [1]: inactive
EC50 [1]: 12.5 µM
p53 activation EC50, RLM [2]: inactive
p53 activation Efficacy, RLM [2]: inactive
p53 activation Efficacy, No MS [3]: 66.4107% and 63.4503%

CSc1ccc2c(c1)N(CCC1CCCCN1C)c1ccccc1S2 (stereo not drawn) [Thioridazine hydrochloride]
EC50, p53 activation, cherry pick confirmation [1]: inactive
EC50, p53 activation, primary screening [1]: inactive
Efficacy, p53 activation, cherry pick confirmation [1]: inactive
Efficacy, p53 activation, primary screening [1]: inactive
EC50, p53 activation, cherry pick confirmation [2]: inactive
EC50, p53 activation, primary screening [2]: inactive
Efficacy, p53 activation, cherry pick confirmation [2]: inactive
Efficacy, p53 activation, primary screening [2]: inactive
Emax [3, 10]: 51.8%
Emax [3, 4]: 64.5%

Oc1c(Cl)cc(Cl)cc1Sc1cc(Cl)cc(Cl)c1O [Bithionol]
EC50, p53 activation, cherry pick confirmation [1]: inactive
EC50, p53 activation, primary screening [1]: inactive
Efficacy, p53 activation, cherry pick confirmation [1]: inactive
Efficacy, p53 activation, primary screening [1]: inactive
EC50, p53 activation, cherry pick confirmation [2]: inactive
EC50, p53 activation, primary screening [2]: inactive
Efficacy, p53 activation, cherry pick confirmation [2]: inactive
Efficacy, p53 activation, primary screening [2]: inactive
Efficacy, p53 activation, primary screening [3]: 93.9867
EC50 ([3]; Homo sapiens, HCT-116, read-out: EC50, p53 activation, cherry pick confirmation): 20.3 µM
Emax [3, 10]: 74%
EC50 [3, 9]: 39.6 µM

O=C1CCCc2c1cc1ccc3cccc4ccc2c1c34 [9,10-Dihydrobenzo[a]pyren-7(8H)-one]
Viability EC50, HLM (p53RE-bla HCT-116 cells): inactive
Viability EC50, No MS (p53RE-bla HCT-116 cells): inactive
Viability EC50, RLM (p53RE-bla HCT-116 cells): inactive
Viability Efficacy, HLM (p53RE-bla HCT-116 cells): inactive
Viability Efficacy, No MS (p53RE-bla HCT-116 cells): inactive
Viability Efficacy, RLM (p53RE-bla HCT-116 cells): inactive
p53 activation EC50, HLM [1]: inactive
EC50 [1]: 9.29 µM
p53 activation EC50, RLM [2]: inactive
p53 activation Efficacy, RLM [2]: inactive

Source: article PMC9151520 (Archives of Toxicology, 2022)
